According to ChEMBL document CHEMBL5465560, “Selectivity Literature for EUbOPEN Chemogenomic Library” (2024):

What was measured:
[1] = biological target: Mitogen-activated protein kinase 1 (Homo sapiens, UniProt P28482); test: Selectivity interaction (Kinase panel (DSF assay)) EUB0001558a MAPK1
[2] = biological target: T1, Tyrosine-protein kinase receptor TYRO3 (Homo sapiens) (UniProt Q06418); test: Selectivity interaction (KinomeScan (DiscoverX)) EUB0000229b TYRO3; details: at 10 µM
T1 sequence (whole entry): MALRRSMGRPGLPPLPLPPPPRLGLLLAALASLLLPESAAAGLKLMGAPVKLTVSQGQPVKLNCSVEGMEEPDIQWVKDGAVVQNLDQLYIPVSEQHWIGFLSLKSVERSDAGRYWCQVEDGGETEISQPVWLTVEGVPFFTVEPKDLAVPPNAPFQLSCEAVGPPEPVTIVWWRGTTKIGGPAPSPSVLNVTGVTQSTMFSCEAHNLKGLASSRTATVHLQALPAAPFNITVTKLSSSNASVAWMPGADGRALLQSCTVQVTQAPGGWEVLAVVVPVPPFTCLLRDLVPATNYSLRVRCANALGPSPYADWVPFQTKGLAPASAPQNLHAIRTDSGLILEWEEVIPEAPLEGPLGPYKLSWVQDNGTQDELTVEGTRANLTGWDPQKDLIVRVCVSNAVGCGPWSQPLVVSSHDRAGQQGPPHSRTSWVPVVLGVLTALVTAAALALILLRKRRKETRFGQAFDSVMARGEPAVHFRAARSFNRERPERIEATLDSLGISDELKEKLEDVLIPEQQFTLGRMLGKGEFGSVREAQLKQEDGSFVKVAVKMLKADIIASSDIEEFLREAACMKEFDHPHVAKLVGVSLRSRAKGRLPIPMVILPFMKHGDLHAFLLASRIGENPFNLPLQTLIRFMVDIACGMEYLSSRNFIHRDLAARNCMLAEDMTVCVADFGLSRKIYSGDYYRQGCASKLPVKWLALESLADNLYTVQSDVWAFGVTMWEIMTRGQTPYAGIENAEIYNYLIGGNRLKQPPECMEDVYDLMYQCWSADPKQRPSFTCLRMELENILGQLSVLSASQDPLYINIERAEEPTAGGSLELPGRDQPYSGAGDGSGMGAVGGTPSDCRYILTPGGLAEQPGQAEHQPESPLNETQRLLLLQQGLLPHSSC

[3] = biological target: Maternal embryonic leucine zipper kinase (Homo sapiens) (UniProt Q14680); test: Selectivity interaction (Upstate Kinase Profiler service (Millipore)) EUB0000056c MELK; details: at 1 µM
Chain of Maternal embryonic leucine zipper kinase (Homo sapiens) (Q14680 whole entry, looked up): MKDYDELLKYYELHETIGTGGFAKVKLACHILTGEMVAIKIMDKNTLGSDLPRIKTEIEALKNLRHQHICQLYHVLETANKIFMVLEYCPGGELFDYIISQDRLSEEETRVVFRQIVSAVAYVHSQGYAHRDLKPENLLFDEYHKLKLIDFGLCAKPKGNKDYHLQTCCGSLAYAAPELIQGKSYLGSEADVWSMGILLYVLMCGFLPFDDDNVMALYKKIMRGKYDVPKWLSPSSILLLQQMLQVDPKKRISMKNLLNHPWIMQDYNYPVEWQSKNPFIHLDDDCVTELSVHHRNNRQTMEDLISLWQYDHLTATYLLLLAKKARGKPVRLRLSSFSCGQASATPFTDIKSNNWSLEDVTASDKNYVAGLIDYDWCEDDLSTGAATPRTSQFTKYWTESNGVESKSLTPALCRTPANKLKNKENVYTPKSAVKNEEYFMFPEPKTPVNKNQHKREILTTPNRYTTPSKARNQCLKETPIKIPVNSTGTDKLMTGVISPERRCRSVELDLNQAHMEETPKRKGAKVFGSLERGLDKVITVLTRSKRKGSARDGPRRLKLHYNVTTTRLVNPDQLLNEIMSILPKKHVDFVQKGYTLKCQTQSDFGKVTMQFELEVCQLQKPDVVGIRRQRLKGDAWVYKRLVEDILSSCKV

[4] = biological target: 5'-AMP-activated protein kinase catalytic subunit alpha-1 (Homo sapiens, UniProt Q13131); test: Selectivity interaction (KinomeScan (DiscoverX)) EUB0001079a PRKAA1; details: at 1 µM
[5] = biological target: 4-aminobutyrate aminotransferase, mitochondrial (Homo sapiens, UniProt P80404); test: Selectivity interaction (GPCR panel (PDSP screen)) EUB0000311b ABAT
Chain of 4-aminobutyrate aminotransferase, mitochondrial (P80404 whole entry): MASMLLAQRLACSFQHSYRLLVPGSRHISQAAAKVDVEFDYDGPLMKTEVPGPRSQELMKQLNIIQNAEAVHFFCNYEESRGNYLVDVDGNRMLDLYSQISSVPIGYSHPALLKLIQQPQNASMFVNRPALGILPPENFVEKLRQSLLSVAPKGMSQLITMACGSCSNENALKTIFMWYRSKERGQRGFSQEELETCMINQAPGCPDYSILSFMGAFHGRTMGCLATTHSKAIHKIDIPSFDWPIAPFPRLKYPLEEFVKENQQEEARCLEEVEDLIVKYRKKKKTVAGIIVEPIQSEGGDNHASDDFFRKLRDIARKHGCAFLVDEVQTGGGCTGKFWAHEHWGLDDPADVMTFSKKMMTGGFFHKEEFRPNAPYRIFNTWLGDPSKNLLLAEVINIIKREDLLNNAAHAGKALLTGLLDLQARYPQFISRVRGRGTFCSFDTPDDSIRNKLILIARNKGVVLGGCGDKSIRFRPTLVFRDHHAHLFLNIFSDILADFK

[6] = biological target: Calcium/calmodulin-dependent protein kinase kinase 2 (Homo sapiens) (UniProt Q96RR4); test: Selectivity interaction (ActivX KiNativ screen (kinase selectivity in THP-1 cell lysates)) EUB0000639a CAMKK2; type: subcellular; details: lysate
Chain of Calcium/calmodulin-dependent protein kinase kinase 2 (Homo sapiens) (Q96RR4 2-588 limits assumed): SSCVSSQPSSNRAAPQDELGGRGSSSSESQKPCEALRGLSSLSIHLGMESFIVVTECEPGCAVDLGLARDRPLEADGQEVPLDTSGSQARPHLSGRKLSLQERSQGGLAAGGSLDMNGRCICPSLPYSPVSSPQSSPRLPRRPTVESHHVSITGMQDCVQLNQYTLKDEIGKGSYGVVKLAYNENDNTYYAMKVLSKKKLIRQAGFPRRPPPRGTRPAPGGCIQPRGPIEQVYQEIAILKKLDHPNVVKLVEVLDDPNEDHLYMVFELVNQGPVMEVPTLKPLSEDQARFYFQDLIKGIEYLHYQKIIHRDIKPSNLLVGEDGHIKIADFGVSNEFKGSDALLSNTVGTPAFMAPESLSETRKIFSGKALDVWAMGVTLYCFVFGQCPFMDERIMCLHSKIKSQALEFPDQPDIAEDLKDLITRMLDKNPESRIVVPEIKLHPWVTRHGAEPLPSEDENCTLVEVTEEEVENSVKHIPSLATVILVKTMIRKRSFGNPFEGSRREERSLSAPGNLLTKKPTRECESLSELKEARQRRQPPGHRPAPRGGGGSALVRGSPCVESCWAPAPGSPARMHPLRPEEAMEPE

[7] = biological target: Tyrosine-protein kinase HCK (Homo sapiens) (UniProt P08631); test: Selectivity interaction (ActivX KiNativ screen (kinase selectivity in THP-1 cell lysates)) EUB0000639a HCK; type: subcellular; details: lysate, at 0.01 µM
Chain of Tyrosine-protein kinase HCK (Homo sapiens) (P08631 2-526 limits assumed): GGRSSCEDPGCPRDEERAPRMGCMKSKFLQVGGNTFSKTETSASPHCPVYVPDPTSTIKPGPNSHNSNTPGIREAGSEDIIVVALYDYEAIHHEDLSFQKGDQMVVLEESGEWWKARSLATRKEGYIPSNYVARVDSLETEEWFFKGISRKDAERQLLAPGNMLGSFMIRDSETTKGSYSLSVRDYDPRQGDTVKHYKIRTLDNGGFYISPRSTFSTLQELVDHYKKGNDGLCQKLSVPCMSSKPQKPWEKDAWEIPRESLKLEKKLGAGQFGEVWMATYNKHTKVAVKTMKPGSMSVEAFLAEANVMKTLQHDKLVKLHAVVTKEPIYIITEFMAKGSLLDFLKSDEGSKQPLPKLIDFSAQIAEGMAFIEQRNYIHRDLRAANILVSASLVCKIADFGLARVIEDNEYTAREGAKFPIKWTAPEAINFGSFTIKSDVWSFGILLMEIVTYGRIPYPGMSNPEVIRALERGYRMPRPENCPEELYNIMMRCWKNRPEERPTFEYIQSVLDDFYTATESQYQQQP

[8] = biological target: Ribosomal protein S6 kinase alpha-6 (Homo sapiens, UniProt Q9UK32); test: Selectivity interaction (KinomeScan (DiscoverX)) EUB0000695a RPS6KA6; details: at 100 nM
Chain of Ribosomal protein S6 kinase alpha-6 (Q9UK32 whole entry): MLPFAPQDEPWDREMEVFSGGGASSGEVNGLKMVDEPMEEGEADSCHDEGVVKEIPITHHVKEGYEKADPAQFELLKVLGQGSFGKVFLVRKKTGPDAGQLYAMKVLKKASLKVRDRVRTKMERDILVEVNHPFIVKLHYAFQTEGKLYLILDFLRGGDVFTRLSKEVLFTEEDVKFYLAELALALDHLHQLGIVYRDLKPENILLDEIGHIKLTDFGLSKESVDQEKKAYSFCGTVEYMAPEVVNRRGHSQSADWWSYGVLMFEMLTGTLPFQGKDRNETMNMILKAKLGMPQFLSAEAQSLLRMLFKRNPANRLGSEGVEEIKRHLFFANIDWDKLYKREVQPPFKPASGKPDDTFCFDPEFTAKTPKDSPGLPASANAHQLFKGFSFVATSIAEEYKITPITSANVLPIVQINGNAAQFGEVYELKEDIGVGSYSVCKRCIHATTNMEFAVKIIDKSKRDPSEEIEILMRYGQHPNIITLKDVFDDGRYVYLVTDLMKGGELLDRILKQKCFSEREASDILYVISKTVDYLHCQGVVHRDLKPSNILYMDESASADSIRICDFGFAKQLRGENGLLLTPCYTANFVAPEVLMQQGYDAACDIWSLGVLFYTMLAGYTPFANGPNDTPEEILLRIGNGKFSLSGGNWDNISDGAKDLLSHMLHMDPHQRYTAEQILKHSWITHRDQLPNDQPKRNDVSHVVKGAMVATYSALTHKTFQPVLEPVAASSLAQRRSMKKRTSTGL

[9] = biological target: Mitogen-activated protein kinase kinase kinase 9 (Homo sapiens) (UniProt P80192); test: Selectivity interaction (KinomeScan (DiscoverX)) EUB0000695a MAP3K9; details: at 100 nM
Chain of Mitogen-activated protein kinase kinase kinase 9 (Homo sapiens) (P80192 whole entry, looked up): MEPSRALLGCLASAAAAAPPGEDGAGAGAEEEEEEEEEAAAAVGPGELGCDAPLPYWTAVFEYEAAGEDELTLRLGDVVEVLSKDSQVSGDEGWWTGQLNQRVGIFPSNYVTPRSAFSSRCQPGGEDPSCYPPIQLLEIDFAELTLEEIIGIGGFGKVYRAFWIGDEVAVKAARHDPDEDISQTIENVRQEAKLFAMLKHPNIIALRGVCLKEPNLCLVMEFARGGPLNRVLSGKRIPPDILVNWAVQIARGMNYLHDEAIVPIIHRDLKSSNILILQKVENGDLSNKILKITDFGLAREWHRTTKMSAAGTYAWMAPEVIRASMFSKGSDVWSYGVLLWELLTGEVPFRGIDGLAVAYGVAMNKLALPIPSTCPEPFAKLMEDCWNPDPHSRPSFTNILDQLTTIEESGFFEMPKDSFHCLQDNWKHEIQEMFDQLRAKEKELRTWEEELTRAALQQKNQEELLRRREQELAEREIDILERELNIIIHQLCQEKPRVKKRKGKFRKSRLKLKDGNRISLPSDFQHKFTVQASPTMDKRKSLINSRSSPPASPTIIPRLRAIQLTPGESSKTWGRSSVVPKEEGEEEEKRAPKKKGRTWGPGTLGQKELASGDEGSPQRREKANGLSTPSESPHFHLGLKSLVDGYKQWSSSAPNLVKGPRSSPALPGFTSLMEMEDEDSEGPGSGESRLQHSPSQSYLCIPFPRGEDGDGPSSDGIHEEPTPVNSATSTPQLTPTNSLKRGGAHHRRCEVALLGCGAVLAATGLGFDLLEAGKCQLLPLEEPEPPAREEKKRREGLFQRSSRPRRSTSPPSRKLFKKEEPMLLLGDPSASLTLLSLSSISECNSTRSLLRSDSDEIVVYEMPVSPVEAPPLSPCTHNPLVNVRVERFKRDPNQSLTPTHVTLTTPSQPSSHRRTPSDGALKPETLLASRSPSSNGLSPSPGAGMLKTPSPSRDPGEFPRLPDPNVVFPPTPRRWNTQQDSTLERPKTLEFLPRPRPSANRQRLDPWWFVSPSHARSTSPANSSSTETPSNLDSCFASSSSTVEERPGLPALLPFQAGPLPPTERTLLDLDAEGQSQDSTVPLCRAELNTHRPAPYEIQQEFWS

[10] = biological target: Serine/threonine-protein kinase 26 (Homo sapiens, UniProt Q9P289); test: Selectivity interaction (KinomeScan (DiscoverX)) EUB0000618a STK26; details: at 10 µM
Chain of Serine/threonine-protein kinase 26 (Q9P289 2-416 limits assumed): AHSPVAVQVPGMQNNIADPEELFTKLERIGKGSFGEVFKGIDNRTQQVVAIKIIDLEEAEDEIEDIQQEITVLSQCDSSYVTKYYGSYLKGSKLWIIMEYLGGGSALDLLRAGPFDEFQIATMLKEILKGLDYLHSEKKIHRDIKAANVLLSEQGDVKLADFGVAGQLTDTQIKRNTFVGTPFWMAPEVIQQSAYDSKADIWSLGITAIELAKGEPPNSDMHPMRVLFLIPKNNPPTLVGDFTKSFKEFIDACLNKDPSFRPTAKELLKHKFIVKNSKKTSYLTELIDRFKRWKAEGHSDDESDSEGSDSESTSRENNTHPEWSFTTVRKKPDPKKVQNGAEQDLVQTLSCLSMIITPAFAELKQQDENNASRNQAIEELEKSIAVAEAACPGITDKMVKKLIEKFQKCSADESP

[11] = biological target: T2, Uncharacterized serine/threonine-protein kinase SBK3 (Homo sapiens) (UniProt P0C264); test: Selectivity interaction (Ambit KINOMEscan and KiNATiv profiling in Jurkat cells) EUB0000090b SBK3; type: cell-based; details: at 1 µM
T2 sequence (whole entry): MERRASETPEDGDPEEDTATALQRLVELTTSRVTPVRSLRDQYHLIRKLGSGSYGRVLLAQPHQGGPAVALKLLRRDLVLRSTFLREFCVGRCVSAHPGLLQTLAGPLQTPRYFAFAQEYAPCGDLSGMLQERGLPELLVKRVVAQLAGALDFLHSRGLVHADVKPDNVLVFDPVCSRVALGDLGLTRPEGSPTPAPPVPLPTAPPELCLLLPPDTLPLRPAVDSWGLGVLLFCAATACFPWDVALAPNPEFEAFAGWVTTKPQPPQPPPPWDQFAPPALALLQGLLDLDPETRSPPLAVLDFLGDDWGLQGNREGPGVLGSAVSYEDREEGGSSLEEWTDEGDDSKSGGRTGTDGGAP

[12] = biological target: T3, Cytoplasmic tyrosine-protein kinase BMX (Homo sapiens) (UniProt P51813); test: Selectivity interaction (KinomeScan (DiscoverX)) EUB0001619a BMX; details: at 1 µM
T3 sequence (whole entry): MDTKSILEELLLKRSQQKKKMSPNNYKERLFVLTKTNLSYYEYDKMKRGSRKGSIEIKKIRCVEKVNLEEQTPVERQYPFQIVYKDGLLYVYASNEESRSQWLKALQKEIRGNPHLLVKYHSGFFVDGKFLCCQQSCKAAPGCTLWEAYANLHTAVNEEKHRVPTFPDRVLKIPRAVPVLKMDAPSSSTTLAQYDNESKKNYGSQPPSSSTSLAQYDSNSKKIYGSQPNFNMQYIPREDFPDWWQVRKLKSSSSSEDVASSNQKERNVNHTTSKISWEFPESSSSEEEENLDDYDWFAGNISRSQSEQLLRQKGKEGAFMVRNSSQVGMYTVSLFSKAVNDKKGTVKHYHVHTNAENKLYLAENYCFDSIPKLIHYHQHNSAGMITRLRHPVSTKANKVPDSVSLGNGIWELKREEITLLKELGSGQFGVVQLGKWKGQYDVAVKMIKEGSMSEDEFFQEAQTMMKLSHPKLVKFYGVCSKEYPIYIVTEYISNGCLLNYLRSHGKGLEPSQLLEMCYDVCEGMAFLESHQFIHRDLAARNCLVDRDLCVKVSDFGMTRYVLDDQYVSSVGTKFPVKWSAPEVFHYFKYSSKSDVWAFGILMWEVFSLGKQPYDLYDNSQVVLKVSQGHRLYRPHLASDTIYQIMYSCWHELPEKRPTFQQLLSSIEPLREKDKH

SRSF protein kinase 1 = SRSF protein kinase 1 (Homo sapiens, UniProt Q96SB4); test: Selectivity interaction (KinomeScan (DiscoverX)) EUB0001619a SRPK1; details: at 1 µM

Chain of Mitogen-activated protein kinase 1 (P28482 whole entry): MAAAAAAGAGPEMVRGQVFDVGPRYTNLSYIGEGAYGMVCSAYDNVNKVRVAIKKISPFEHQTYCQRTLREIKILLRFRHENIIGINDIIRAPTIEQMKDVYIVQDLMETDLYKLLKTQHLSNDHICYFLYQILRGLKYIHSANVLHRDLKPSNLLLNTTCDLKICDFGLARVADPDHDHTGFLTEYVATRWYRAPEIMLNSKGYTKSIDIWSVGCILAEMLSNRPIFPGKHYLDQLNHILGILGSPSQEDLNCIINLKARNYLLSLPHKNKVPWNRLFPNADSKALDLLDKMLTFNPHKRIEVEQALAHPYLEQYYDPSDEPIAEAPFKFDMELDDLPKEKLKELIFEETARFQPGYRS

CC(C)(O)[C@H](F)CN1Cc2cc(NC(=O)c3cnn4cccnc34)c(N3CCOCC3)cc2C1=O
dTM [1]: 0.4 K

COc1cc(N(C)c2ccnc3ccc(C(F)(F)F)cc23)cc(OC)c1OC
% binding [2]: 80%

Cc1ccc(-c2ccc3c(ccc4sc5c(c43)NC[C@@H](C)NC5=O)n2)cn1
% of inhibition [3]: 10%

Nc1cnc(N2CCc3cc(S(=O)(=O)Nc4c(F)cc(Cl)cc4F)cc(N4CCCC4=O)c32)nc1 [TP-020n]
% of control [4]: 100%

CCc1ccccc1C(=O)Nc1n[nH]c2c(C)c(F)c(C3C(C#N)=C(C)N(C)C(C)=C3C#N)cc12 [BAY-3827]
Ki [5]: 222 nM

CC[C@@H]1[C@H](F)C(=O)N[C@@H]1COc1nccc2cc(C(N)=O)c(OC)cc12 [ZIMLOVISERTIB]
% of inhibition ([6]; at 0.01 µM): 5.1%
% of inhibition ([6]; at 0.04 µM): 9.8%
% of inhibition ([6]; at 0.2 µM): 8.1%
% of inhibition ([6]; at 1 µM): 37.6%
% of inhibition ([6]; at 5 µM): 63.5%
% of inhibition [7]: -14.7%

Cc1cc(F)c(C(=O)Nc2cccc(-c3nncn3C(C)C)n2)cc1-n1cnc(C2CC2)c1
% of control [8]: 84%
% of control [9]: 99%

O[C@H]1CC[C@H](Nc2ncc3nc(Nc4c(F)cc(F)cc4F)n([C@H]4CCOC4)c3n2)CC1
% of control [10]: 82%

CN(C)C/C=C/C(=O)Nc1ccc(C(=O)N2CCCC(Nc3ncc(Cl)c(-c4c[nH]c5ccccc45)n3)C2)cc1 (configuration not stated)
% of control [11]: 82%

N#Cc1cccc(-c2c[nH]c3ncnc(N4CCOCC4)c23)c1
% of control [12]: 97%
% of control (SRSF protein kinase 1): 25%
